Laboratory results published in patent US9034323B2, “Method for control of post-prandial glucose” (Halozyme, Inc., priority 2008, dated 2015).
Where two headings read alike, the source gives them in different places.

Key:
[1] = set-up: species or system Yucatan mini pigs; details: pig, in vivo; for tmax: sc
Experimental: The pharmacokinetics (PK) of regular insulin, when subcutaneously administered at two different concentrations, both alone and co-administered with rHuPH20, was assessed in the porcine model described in Example 10, above. A multiple dose 4-way crossover design study was conducted to compare the PK of regular insulin at concentrations of 20 and 100 U/mL, when administered alone, to the same two concentrations after co-administration with rHuPH20. In each case, a total of 0.2 U/kg of insulin was administered.
Four test articles were prepared for dosing. […] The Insulin-PH20 U100 test article contained 3.69 mg/mL (100 U/mL) regular insulin (Lot # SIHR107; Diosynth Biotechnologies) and 20 μg/mL (approximately 2400 U/mL) rHuPH20 in 25 mM Tris, 120 mM NaCl, 0.01% Polysorbate 80, pH 7.3.
The group assignment was maintained for cycles 1 and 2.
The serum IRI concentrations were determined for each serum sample by interpolation from a standard curve using StatLIA® assay analysis software (Brendan Technologies, Carlsbad, Calif.). […] These baselines were then subtracted from the actual IRI concentrations measured at each timepoint to determine the baseline-adjusted IRI concentration.
Serum IRI versus time data were modeled by non-compartmental analysis using WinNonlin Professional model 200 (Version 5.2, Pharsight Corp., Mountain View, Calif.) and the PK parameters calculated. […] All analyses were performed using a mixed model with fixed effects for treatment. A compound symmetric covariance matrix among repeated observations for each animal was assumed. Analyses for Cmax and all AUC endpoints were performed using log-transformed values with values of zero replaced by 1 prior to log transformation (zero on the log scale). The time based endpoints were analyzed on the original linear scale.
N=16 pigs unless otherwise noted.

blood glucose = assay: Blood glucose levels in mice after intradermal Humulin insulin with hyaluronan degrading enzymes (Example 9); assay type: in vivo, NCr nu/nu homozygous mice; details: for Blood Glucose Level: group mean
Experimental: (§1) The ability of different hyaluronan degrading enzymes to act as a dispersion agent was assessed in vivo. A dispersion assay in mice was used to assess the ability of different hyaluronan degrading enzyme to act as dispersion agents of trypan blue, and also to assess the ability of the enzymes to enhance the efficacy of co-administered insulin in reducing blood glucose levels. The hyaluronan degrading enzymes assayed included rHuPH20, pegylated PH20 (PEG PH20), Hyal 1, Chondroitinase ABC, Chondroitinase AC and Streptomyces hyalurolyticus lyase. […] Both the area of dispersion of the trypan blue and the blood glucose levels were then measured. […] The ability of a low pH buffer (pH 4.5) to act as a dispersion agent also was examined.
(§2) Nine groups of NCr nu/nu homozygous mice, approximately 10 weeks of age and with body weights of 21-25 g, with 3 mice per group, were anesthetized by intraperitoneal injection of ketamine/xylazine (10:1 mixture in saline). […] The dispersion of the trypan blue dye was then measured by a caliper at 2.5, 5, 10, 15 and 20 minutes post injection. The dye dispersion area (mm^2) was calculated by multiplying the longest axis M1 (length of the dye front) and M2 (width of the dye front) by ¼π (M1M2×¼π). The blood glucose levels were measured using a glucometer at 0, 5, 10, 15 and 20 minutes

[2] = tested on: dispersion of trypan blue dye; assay: Trypan blue dye dispersion assay in mice (Example 9); assay type: in vivo, NCr nu/nu homozygous mice; details: for Dye Dispersion Areas: intradermal, trypan blue with 5 Units/mL Humulin insulin, enzyme 10 U/mL (Chondroitinase AC 1 U/mL, Strep lyase 100 U/mL), group mean; for increase in dye dispersion area compared to buffer only: mixed with trypan blue and Humulin insulin
Experimental: as §1, §2

[3] = background, cited from earlier work
[4] = tested on: plasma glucose (glucose infusion rate to maintain 90-110 mg/dL); assay: Glucose infusion rate (GIR) pharmacodynamics, Hyperinsulinemic-Euglycemic Clamp (Example 1a); assay type: in vivo, human; details: Mean
Experimental: The procedure consisted of initially obtaining the subject's weight and height and measuring the vital signs after resting in a sitting position for 5 minutes. Both arms were placed in heating pads to dilate the veins and IV catheters were then inserted. A catheter was placed into the antecubital vein of one arm for infusion of Dextrose 20% via two separate stop cocks. The other […] catheter was placed into the other arm for sampling of arterialized blood for glucose measurements. The heating pad can be removed from the glucose infusion site, but the retrograde catheter site was maintained at 65° C. An initial blood sample was obtained to measure baseline glucose 30 minutes before injection of the insulin preparations.

[5] = 5 min post injection, intradermal with 5 Units/mL Humulin insulin, enzyme 10 U/mL (Chondroitinase AC 1 U/mL, Strep lyase 100 U/mL)
[6] = 10 min post injection, intradermal with 5 Units/mL Humulin insulin, enzyme 10 U/mL (Chondroitinase AC 1 U/mL, Strep lyase 100 U/mL)
[7] = 15 min post injection, intradermal with 5 Units/mL Humulin insulin, enzyme 10 U/mL (Chondroitinase AC 1 U/mL, Strep lyase 100 U/mL)
[8] = 20 min post injection, intradermal with 5 Units/mL Humulin insulin, enzyme 10 U/mL (Chondroitinase AC 1 U/mL, Strep lyase 100 U/mL)

For Insulin 100 U, the tmax [1] was 1.07 ± 0.817 h.

In the case of “Insulin U100: Undiluted Humulin R insulin, 100 U/mL”, the AUC0-15 [1] is reported as 20 pmol·min/L, the AUC0-30 [1] is reported as 222 pmol·min/L and the AUClast [1] is reported as 9,021 pmol×min/L. For the same molecule, the tmax [1] was 1.07 h.

In the case of Chondroitinase ABC, the “Blood Glucose Level” value (blood glucose; 0 min (prior to injection)) is reported as 129.67 mg/dL, the “Blood Glucose Level” value (blood glucose; [5]) is reported as 123.67 mg/dL and the “Blood Glucose Level” value (blood glucose; [6]) is reported as 65.00 mg/dL. The “Blood Glucose Level” value (blood glucose; [7]) was 44.67 mg/dL, the “Blood Glucose Level” value (blood glucose; [8]) was 21.00 mg/dL and the “reduction of blood glucose levels compared with Humulin insulin alone” value (blood glucose; co-administered with Humulin insulin) was “appeared to reduce levels even faster”. For the same molecule, the “Dye Dispersion Areas” value ([2]; 5 min post injection) was 75.06 mm^2, the “average dispersion area of trypan blue dye” value (“average dispersion area” for short) ([2]; 5 minutes after injection) was ~75 mm^2 and the “Dye Dispersion Areas” value ([2]; 10 min post injection) was 78.60 mm^2. For the same molecule, the “average dispersion area” value ([2]; 10 minutes after injection) was ~79 mm^2, the “Dye Dispersion Areas” value ([2]; 15 min post injection) was 81.44 mm^2 and the “average dispersion area” value ([2]; 15 minutes after injection) was ~81 mm^2. For the same molecule, the “Dye Dispersion Areas” value ([2]; 20 min post injection) was 87.85 mm^2, the “average dispersion area” value ([2]; 20 minutes after injection) was ~88 mm^2 and the “average dispersion area” value ([2]; […] after injection) was “about 57 mm^2”. For the same molecule, the “Dye Dispersion Areas” value ([2]; […] post injection) was 56.85 mm^2 and the “increase in dye dispersion area compared to buffer only” value [2] was “significant increase”.

For insulin glulisine, the Duration [3] is listed as 3 to 4 h, the Peak [3] is listed as 0.75 to 1.5 h and the Onset ([3]; subcutaneous insulin) is listed as 0.083 to 0.25 h.

Insulin 20 U showed a tmax [1] of 0.95 ± 0.7 h.

With “Insulin U20: Humulin R insulin diluted 1:5 with sterile diluent to 20 U/mL” the AUC0-15 [1] was 80 pmol·min/L, the AUC0-30 [1] was 791 pmol·min/L and the AUClast [1] was 20,820 pmol×min/L. It also gave a tmax [1] of 0.95 h.

In the case of “detemir: Long-lasting insulin, an analog”, the Duration [3] is listed as 28 h, the Onset [3] is listed as 4 to 6 h and the Peak [3] is listed as 18 to 28 h.

With Humalog ® alone the “GIR AUC 0-60 min” value ([4]; Dosing Sequence 1) was 1910 min * mL/hr, the “GIR AUC 0-120 min” value ([4]; Dosing Sequence 1) was 9860 min * mL/hr and the “GIR AUC 0-180 min” value ([4]; Dosing Sequence 1) was 20700 min * mL/hr. For the same molecule, the “GIR AUC 0-240 min” value ([4]; Dosing Sequence 1) was 32580 min * mL/hr, the “GIR AUC 0-360 min” value ([4]; Dosing Sequence 1) was 51650 min * mL/hr and the tmax ([4]; Dosing Sequence 1) was 185. The “GIR AUC 0-60 min” value ([4]; Dosing Sequence 2) was 2260 min * mL/hr, the “GIR AUC 0-120 min” value ([4]; Dosing Sequence 2) was 9670 min * mL/hr and the “GIR AUC 0-180 min” value ([4]; Dosing Sequence 2) was 19220 min * mL/hr. For the same molecule, the “GIR AUC 0-240 min” value ([4]; Dosing Sequence 2) was 29120 min * mL/hr, the “GIR AUC 0-360 min” value ([4]; Dosing Sequence 2) was 44730 min * mL/hr and the tmax ([4]; Dosing Sequence 2) was 200. For the same molecule, the “GIR AUC 0-60 min” value ([4]; Dosing Sequence all) was 2080 min * mL/hr, the “GIR AUC 0-120 min” value ([4]; Dosing Sequence all) was 9760 min * mL/hr and the “GIR AUC 0-180 min” value ([4]; Dosing Sequence all) was 19960 min * mL/hr. The “GIR AUC 0-240 min” value ([4]; Dosing Sequence all) was 30850 min * mL/hr, the “GIR AUC 0-360 min” value ([4]; Dosing Sequence all) was 48190 min * mL/hr and the tmax ([4]; Dosing Sequence all) was 193.

In the case of insulin glargine, the Duration [3] is given as 28 h, the Onset [3] is given as 4 to 6 h and the Peak [3] is given as 18 to 28 h.

B1: Hyal I (protein, UniProt Q12794 22-435, looked up)
Hyaluronidase-1: FRGPLLPNRPFTTVWNANTQWCLERHGVDVDVSVFDVVANPGQTFRGPDMTIFYSSQLGTYPYYTPTGEPVFGGLPQNASLIAHLARTFQDILAAIPAPDFSGLAVIDWEAWRPRWAFNWDTKDIYRQRSRALVQAQHPDWPAPQVEAVAQDQFQGAARAWMAGTLQLGRALRPRGLWGFYGFPDCYNYDFLSPNYTGQCPSGIRAQNDQLGWLWGQSRALYPSIYMPAVLEGTGKSQMYVQHRVAEAFRVAVAAGDPNLPVLPYVQIFYDTTNHFLPLDELEHSLGESAAQGAAGVVLWVSWENTRTKESCQAIKEYMDTTLGPFILNVTSGALLCSQALCSGHGRCVRRTSHPKALLLLNPASFSIQLTPGGGPLSLRGALSLEDQAQMAVEFKCRCYPGWQAPWCERKSMW
With B1 the “Blood Glucose Level” value (blood glucose; 0 min (prior to injection)) was 155.67 mg/dL, the “Blood Glucose Level” value (blood glucose; [5]) was 201.33 mg/dL and the “Blood Glucose Level” value (blood glucose; [6]) was 144.33 mg/dL. For the same molecule, the “Blood Glucose Level” value (blood glucose; [7]) was 77.00 mg/dL, the “Blood Glucose Level” value (blood glucose; [8]) was 52.67 mg/dL and the “Dye Dispersion Areas” value ([2]; 5 min post injection) was 36.27 mm^2. For the same molecule, the “Dye Dispersion Areas” value ([2]; 10 min post injection) was 39.60 mm^2, the “Dye Dispersion Areas” value ([2]; 15 min post injection) was 46.41 mm^2 and the “Dye Dispersion Areas” value ([2]; 20 min post injection) was 48.21 mm^2. For the same molecule, the “Dye Dispersion Areas” value ([2]; […] post injection) was 31.53 mm^2.

B2: Hyal 1: Hyaluronan degrading enzyme; acid-active human hyaluronidase (protein, listed as Homo sapiens)
chain: MAAHLLPICALFLTLLDMAQGFRGPLLPNRPFTTVWNANTQWCLERHGVDVDVSVFDVVANPGQTFRGPDMTIFYSSQLGTYPYYTPTGEPVFGGLPQNASLIAHLARTFQDILAAIPAPDFSGLAVIDWEAWRPRWAFNWDTKDIYRQRSRALVQAQHPDWPAPQVEAVAQDQFQGAARAWMAGTLQLGRALRPRGLWGFYGFPDCYNYDFLSPNYTGQCPSGIRAQNDQLGWLWGQSRALYPSIYMPAVLEGTGKSQMYVQHRVAEAFRVAVAAGDPNLPVLPYVQIFYDTTNHFLPLDELEHSLGESAAQGAAGVVLWVSWENTRTKESCQAIKEYMDTTLGPFILNVTSGALLCSQALCSGHGRCVRRTSHPKALLLLNPASFSIQLTPGGGPLSLRGALSLEDQAQMAVEFKCRCYPGWQAPWCERKSMW
modifications: Hyaluronidase-1 [Precursor]
In the case of B2, the “increase in dye dispersion area compared to buffer only” value [2] is reported as “no statistically significant increase”.
